How the values were obtained:
[1] = target: Bone morphogenetic protein receptor type-2 (Homo sapiens) (UniProt Q13873); conditions: Compound concentration 1000.0 nM
[2] = target: Calcium/calmodulin-dependent protein kinase type II subunit alpha (Homo sapiens) (UniProt Q9UQM7); conditions: Compound concentration 1000.0 nM
[3] = target: Epithelial discoidin domain-containing receptor 1 (Homo sapiens) (UniProt Q08345); conditions: Compound concentration 1000.0 nM
[4] = system: Epidermal growth factor receptor (Homo sapiens), P00533 [UNDEFINED MUTATION]; conditions: Compound concentration 1000.0 nM
Epidermal growth factor receptor (Homo sapiens), P00533 [UNDEFINED MUTATION], sequence (P00533 whole entry, looked up, stated change not applied): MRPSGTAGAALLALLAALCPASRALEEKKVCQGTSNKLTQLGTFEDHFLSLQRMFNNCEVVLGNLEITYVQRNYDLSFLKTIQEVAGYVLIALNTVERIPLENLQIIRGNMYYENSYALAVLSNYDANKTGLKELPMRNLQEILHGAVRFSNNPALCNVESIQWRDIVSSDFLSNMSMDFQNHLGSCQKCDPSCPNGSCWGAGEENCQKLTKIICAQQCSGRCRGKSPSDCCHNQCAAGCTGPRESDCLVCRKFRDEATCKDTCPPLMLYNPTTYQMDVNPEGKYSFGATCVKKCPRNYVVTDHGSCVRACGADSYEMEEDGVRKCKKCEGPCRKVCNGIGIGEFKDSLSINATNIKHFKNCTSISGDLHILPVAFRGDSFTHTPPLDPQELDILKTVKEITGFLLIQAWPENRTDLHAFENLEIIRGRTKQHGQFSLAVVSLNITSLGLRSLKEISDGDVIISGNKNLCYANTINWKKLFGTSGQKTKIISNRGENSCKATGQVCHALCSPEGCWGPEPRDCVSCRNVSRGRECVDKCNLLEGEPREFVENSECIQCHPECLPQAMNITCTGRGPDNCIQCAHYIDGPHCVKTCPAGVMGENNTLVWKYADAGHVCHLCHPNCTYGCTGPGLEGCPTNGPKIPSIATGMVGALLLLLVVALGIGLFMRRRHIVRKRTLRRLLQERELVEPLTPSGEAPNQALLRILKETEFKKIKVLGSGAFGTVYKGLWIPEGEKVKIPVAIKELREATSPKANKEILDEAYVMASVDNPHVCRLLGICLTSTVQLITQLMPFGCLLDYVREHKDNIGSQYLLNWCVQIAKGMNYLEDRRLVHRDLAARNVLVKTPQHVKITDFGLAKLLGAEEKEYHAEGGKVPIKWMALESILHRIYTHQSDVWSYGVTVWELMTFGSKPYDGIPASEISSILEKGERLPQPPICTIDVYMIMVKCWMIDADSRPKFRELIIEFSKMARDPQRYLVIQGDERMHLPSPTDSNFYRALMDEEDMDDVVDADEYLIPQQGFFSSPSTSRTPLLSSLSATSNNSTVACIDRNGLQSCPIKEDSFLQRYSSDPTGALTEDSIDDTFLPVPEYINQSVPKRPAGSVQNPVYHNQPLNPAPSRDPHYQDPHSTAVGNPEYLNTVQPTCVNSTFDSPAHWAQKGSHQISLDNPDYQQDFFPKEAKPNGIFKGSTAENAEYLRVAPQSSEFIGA

[5] = system: Mast/stem cell growth factor receptor Kit (Homo sapiens), P10721 [A829P]; conditions: Compound concentration 1000.0 nM
[6] = system: Mast/stem cell growth factor receptor Kit (Homo sapiens), P10721 [V559D,T670I]; conditions: Compound concentration 1000.0 nM
[7] = target: T1, Tyrosine-protein kinase Mer (Homo sapiens) (UniProt Q12866); conditions: Compound concentration 1000.0 nM
T1 sequence (whole entry): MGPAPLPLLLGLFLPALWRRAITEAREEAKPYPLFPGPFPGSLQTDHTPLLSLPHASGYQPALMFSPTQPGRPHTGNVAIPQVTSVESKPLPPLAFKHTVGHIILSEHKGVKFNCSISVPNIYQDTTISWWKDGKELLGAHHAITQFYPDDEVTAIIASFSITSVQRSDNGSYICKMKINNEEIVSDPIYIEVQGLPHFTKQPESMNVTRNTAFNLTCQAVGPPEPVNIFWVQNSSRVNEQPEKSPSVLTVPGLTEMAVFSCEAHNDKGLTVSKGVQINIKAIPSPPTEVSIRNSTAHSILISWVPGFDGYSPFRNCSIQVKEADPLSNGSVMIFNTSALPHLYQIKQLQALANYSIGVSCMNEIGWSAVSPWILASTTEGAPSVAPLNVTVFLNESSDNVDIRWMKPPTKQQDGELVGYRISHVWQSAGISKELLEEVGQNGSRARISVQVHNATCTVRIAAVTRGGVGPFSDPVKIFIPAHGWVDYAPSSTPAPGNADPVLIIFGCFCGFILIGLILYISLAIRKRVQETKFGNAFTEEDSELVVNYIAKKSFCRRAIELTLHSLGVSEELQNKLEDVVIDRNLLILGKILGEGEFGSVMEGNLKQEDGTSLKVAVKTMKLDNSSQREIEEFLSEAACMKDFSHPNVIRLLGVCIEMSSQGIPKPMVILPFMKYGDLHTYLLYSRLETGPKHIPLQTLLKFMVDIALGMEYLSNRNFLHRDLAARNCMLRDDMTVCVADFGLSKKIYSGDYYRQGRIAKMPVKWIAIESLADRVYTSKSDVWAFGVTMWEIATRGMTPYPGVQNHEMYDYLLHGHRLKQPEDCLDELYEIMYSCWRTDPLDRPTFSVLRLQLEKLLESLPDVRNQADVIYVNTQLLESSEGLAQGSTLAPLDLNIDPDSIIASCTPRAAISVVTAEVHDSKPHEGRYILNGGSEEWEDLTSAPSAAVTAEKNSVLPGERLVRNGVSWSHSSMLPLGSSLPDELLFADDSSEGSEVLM

[8] = target: MAP kinase-interacting serine/threonine-protein kinase 1 (Homo sapiens) (UniProt Q9BUB5); conditions: Compound concentration 1000.0 nM
[9] = target: 3-phosphoinositide-dependent protein kinase 1 (Homo sapiens) (UniProt O15530); conditions: Compound concentration 1000.0 nM
3-phosphoinositide-dependent protein kinase 1 (Homo sapiens), sequence (O15530 whole entry): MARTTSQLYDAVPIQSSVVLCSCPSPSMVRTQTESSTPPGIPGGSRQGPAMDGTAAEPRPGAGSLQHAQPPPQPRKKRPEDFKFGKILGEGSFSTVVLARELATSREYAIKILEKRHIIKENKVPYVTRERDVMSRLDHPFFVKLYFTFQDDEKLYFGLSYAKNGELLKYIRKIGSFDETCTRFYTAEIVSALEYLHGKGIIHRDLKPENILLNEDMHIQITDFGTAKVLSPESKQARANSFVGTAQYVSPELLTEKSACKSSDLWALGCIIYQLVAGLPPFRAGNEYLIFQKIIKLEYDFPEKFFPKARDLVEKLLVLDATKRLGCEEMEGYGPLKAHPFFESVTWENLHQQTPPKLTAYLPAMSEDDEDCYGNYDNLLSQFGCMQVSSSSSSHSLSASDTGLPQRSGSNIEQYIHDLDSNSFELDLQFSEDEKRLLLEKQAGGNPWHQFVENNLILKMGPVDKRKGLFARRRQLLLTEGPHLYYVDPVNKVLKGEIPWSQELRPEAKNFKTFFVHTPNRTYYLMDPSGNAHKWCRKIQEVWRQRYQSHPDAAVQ

[10] = target: T2, Serine/threonine-protein kinase D2 (Homo sapiens) (UniProt Q9BZL6); conditions: Compound concentration 1000.0 nM
T2 sequence (whole entry): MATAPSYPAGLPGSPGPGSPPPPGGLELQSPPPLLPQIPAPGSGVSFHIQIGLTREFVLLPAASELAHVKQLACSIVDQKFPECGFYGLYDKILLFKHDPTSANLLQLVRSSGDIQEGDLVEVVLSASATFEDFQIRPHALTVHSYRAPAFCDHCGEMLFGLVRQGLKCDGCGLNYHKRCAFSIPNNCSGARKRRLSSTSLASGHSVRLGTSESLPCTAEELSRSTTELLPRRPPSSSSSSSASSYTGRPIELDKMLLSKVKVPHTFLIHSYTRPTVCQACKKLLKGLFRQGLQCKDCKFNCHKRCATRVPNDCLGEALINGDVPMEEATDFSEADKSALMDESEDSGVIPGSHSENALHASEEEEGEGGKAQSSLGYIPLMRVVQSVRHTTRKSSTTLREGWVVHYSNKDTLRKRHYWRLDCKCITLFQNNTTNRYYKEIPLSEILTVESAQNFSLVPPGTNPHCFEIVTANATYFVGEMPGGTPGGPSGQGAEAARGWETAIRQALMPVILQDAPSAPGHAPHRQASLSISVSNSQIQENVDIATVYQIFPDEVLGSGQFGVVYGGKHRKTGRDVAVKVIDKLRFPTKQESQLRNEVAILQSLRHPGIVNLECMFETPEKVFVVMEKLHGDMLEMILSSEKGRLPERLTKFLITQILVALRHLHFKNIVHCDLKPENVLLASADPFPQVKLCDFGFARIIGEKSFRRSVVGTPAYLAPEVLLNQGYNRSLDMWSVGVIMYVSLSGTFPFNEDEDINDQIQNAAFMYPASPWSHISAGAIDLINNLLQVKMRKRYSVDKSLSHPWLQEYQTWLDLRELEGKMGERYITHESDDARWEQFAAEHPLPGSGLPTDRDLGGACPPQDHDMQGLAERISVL

[11] = target: Proto-oncogene tyrosine-protein kinase ROS (Homo sapiens) (UniProt P08922); conditions: Compound concentration 1000.0 nM
Proto-oncogene tyrosine-protein kinase ROS (Homo sapiens), sequence (P08922 whole entry): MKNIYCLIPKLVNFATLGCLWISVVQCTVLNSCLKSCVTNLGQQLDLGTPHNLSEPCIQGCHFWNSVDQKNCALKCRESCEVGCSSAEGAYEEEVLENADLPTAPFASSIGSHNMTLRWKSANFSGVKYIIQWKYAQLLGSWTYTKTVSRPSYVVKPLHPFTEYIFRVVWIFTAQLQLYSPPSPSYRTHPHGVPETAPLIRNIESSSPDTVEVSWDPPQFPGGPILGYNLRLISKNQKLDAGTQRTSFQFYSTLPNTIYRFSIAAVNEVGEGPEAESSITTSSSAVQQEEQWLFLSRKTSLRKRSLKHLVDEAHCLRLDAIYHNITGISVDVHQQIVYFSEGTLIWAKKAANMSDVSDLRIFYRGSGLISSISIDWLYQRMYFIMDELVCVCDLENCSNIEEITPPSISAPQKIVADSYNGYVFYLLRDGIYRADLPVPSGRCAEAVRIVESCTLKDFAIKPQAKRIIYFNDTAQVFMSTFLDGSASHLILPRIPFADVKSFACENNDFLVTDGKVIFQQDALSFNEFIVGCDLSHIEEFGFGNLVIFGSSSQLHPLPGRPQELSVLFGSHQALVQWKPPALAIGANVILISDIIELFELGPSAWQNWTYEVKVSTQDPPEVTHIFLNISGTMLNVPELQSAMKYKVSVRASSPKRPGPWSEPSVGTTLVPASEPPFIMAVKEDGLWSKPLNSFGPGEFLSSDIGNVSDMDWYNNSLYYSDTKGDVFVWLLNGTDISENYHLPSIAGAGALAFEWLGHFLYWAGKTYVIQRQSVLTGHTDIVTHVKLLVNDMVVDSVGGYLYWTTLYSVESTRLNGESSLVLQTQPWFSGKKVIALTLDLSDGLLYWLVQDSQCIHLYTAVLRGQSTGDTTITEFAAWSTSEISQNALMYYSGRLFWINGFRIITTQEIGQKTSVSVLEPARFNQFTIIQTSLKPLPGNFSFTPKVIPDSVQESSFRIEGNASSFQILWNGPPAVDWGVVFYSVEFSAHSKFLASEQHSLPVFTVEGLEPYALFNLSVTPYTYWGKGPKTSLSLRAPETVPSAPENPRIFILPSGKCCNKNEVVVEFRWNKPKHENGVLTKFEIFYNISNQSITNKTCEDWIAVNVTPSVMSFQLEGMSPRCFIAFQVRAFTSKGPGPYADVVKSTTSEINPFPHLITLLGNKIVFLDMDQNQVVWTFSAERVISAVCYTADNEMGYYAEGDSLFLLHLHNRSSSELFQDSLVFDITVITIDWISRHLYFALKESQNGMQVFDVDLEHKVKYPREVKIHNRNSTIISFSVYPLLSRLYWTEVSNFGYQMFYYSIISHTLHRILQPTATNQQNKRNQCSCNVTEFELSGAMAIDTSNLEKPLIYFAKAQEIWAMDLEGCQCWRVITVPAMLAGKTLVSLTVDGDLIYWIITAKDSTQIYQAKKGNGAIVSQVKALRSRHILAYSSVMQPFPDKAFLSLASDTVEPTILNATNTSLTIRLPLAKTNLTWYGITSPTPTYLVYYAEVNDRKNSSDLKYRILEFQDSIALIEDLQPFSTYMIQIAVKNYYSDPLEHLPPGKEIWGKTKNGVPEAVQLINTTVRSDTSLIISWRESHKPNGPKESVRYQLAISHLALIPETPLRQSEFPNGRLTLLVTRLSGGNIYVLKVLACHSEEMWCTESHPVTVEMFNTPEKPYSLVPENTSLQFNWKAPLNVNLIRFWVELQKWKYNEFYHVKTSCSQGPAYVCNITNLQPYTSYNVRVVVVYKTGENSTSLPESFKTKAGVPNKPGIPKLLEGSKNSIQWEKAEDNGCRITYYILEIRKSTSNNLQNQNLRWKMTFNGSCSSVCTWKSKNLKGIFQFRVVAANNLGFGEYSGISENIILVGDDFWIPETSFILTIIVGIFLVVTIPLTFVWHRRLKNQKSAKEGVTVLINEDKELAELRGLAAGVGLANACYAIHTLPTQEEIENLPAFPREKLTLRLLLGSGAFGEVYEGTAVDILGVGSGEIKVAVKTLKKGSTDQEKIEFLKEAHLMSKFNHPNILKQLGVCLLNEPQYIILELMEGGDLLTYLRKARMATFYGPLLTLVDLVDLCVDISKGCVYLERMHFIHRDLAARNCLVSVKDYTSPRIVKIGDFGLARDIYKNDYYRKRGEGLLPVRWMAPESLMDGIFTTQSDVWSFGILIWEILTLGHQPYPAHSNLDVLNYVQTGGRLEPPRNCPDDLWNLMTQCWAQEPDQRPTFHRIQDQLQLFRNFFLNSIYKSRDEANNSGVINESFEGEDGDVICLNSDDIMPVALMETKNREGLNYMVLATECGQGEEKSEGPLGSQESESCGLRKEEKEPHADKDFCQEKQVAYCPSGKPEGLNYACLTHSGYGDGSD

[12] = target: Serine/threonine-protein kinase 32A (Homo sapiens) (UniProt Q8WU08); conditions: Compound concentration 1000.0 nM
[13] = target: T3, Alpha-2A adrenergic receptor (Homo sapiens) (UniProt P08913); conditions: Compound concentration 10.0 uM
T3 sequence (whole entry): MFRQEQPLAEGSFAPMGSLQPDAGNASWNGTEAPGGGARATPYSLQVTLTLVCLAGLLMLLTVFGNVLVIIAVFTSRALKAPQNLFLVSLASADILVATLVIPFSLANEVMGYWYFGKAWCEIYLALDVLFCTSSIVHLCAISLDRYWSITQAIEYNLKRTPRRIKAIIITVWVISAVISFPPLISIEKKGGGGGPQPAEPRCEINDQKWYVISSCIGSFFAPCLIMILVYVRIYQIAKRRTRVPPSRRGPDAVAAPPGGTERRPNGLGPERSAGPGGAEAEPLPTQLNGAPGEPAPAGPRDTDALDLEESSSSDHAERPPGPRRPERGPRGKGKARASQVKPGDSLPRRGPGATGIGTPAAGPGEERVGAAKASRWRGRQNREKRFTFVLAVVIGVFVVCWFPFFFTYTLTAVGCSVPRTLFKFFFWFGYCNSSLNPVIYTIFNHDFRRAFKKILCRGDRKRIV

Bone morphogenetic protein receptor type-2 (Homo sapiens), sequence (Q13873 whole entry): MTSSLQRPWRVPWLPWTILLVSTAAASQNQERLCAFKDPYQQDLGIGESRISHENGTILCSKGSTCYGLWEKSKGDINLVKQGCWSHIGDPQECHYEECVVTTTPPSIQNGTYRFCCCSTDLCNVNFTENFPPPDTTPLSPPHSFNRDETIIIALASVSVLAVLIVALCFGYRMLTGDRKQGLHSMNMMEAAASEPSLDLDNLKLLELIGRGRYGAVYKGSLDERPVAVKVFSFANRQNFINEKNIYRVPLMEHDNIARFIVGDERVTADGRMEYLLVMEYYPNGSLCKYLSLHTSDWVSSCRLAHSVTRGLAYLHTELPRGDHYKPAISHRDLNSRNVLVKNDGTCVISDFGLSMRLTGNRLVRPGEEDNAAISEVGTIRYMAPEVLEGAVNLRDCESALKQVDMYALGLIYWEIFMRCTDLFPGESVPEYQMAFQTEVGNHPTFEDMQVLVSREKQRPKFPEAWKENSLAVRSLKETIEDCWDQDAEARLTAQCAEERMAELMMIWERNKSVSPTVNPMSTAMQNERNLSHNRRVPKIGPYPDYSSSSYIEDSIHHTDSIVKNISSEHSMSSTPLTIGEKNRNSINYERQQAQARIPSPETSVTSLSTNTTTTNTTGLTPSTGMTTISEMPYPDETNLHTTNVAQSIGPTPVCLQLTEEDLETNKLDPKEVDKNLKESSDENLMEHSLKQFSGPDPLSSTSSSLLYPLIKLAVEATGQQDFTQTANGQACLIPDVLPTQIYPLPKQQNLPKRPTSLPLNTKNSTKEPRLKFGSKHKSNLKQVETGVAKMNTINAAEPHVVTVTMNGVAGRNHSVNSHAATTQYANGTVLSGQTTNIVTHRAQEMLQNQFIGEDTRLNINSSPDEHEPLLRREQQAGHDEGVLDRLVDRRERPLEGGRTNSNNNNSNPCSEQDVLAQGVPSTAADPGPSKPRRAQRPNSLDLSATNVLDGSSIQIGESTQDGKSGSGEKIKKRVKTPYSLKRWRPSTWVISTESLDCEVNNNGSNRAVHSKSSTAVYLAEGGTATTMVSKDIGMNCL

CN(C)C(=O)Cn1cc(-c2nc(C3(c4ccc(-c5cnc(N)nc5)cc4)CC3)no2)cn1 [BI 0153]
inactive: residual activity [1] 93% | residual activity [2] 100% | residual activity [3] 86% | residual activity [4] 67% | residual activity [5] 93% | residual activity [6] 100% | residual activity [7] 88% | residual activity [8] 85% | residual activity [9] 82% | residual activity [10] 89% | residual activity [11] 87% | residual activity [12] 97% | inhibition [13] 22.4%

CN(C)C(=O)Cn1cc(-c2nc([C@@](C)(c3ccc(-c4cnc(N)nc4)cc3)C3CC3)no2)cn1 [BI 665915]
inactive: residual activity [1] 94% | residual activity [2] 96% | residual activity [3] 90% | residual activity [4] 100% | residual activity [5] 80% | residual activity [6] 81% | residual activity [7] 100% | residual activity [8] 85% | residual activity [9] 99% | residual activity [10] 100% | residual activity [11] 88% | residual activity [12] 83% | inhibition [13] -3.33%
